SMILES strings stand for the structures. Some results are limits rather than exact numbers.

As a reminder, the IC50 is the concentration needed to halve the response being measured. The low end stands for higher potency, the high end for lower potency.

HCV NS5B polymerase, sequence (P26663 2420-3010): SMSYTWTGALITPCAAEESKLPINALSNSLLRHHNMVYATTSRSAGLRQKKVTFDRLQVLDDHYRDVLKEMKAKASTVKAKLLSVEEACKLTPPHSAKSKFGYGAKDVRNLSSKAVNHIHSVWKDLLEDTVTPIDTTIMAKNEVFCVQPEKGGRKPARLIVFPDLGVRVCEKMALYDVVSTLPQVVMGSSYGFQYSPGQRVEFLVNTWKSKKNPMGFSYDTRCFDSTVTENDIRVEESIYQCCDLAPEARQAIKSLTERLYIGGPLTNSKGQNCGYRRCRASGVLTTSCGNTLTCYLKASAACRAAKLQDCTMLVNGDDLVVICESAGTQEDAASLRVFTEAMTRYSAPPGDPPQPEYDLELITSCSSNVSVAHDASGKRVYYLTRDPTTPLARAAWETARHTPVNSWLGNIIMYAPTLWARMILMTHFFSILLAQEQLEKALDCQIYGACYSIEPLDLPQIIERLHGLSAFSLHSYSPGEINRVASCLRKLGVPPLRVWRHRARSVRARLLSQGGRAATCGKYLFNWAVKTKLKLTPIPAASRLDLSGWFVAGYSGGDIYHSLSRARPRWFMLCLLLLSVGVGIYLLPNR

This assay has as its target HCV NS5B polymerase (Hepatitis C virus genotype 1b, UniProt P26663). Briefly: NS5B Polymerase Inhibition Assay. It counts as biochemical. The settings on record: 50 nM enzyme, [α-33P]GTP, oligo (rG13)/poly rC, 75 min at 28° C. The procedure:
NS5B Polymerase Inhibition Assay
Compounds were tested for HCV polymerase inhibition. Assays were performed in a 96-well streptavidin-coated FlashPlate using 50 nM enzyme, 0.5 μCi of [α-^33P]GTP, 0.63 μM GTP, and 250 nM 5′biotinylated oligo (rG13)/poly rC in 20 mM Tris-HCl, pH 7.5, 5 mM MgCl2, 20 mM NaCl, 5 mM dithiothreitol, and 0.1 g/L BSA. The reaction was stopped by aspiration after 75 min at 28° C. and the plate was washed several times. After washing, incorporated radioactivity was counted using a Microbeta scintillation counter.
For `COc1ccc2c(c1)S(=O)(=O)NC(c1c(O)c(-c3ccc(C)s3)nn(CCC(C)C)c1=O)=N2` [Compound 9, 5-Hydroxy-4-(7-methoxy-1,1-dioxo-1,2-dihydro-1λ^6-ben-zo[1,2,4]thiadiazin-3-yl)-2-(3-methyl-butyl)-6-(5-methyl-thio-phen-2-yl)-2H-pyridazin-3-one], the IC50 was in the range of 10 to 50 µM.
Regarding `COc1ccc2c(c1)S(=O)(=O)NC(c1c(O)c(-c3cccs3)nn(CCC3CC3)c1=O)=N2` [Compound 3, 2-(2-Cyclopropyl-ethyl)-5-hydroxy-4-(7-methoxy-1,1-dioxo-1,2-di-hydro-1λ^6-benzo[1,2,4]thiadiazin-3-yl)-6-thiophen-2-yl-2H-py-ridazin-3-one], the IC50 is below 10 µM.
In turn, `CCCCn1nc(C(C)C)c(O)c(C2=Nc3ccc(O)cc3S(=O)(=O)N2)c1=O` [Compound 11, 2-Butyl-5-hydroxy-4-(7-hydroxy-1,1-dioxo-1,2-dihydro-1λ^6-ben-zo[1,2,4]thiadiazin-3-yl)-6-isopropyl-2H-pyridazin-3-one] registered an IC50 below 10 µM.
In turn, `CCCc1nn(CCC(C)C)c(=O)c(C2=Nc3ccc(O)cc3S(=O)(=O)N2)c1O` [Compound 46, 5-Hydroxy-4-(7-hydroxy-1,1-dioxo-1,2-dihydro-1λ^6-ben-zo[1,2,4]thiadiazin-3-yl)-2-(3-methyl-butyl)-6-propyl-2H-py-ridazin-3-one] had an IC50 below 10 µM.
For the compound `CCCCn1nc(CCC(C)C)c(O)c(C2=Nc3ccc(OCC(N)=O)cc3S(=O)(=O)N2)c1=O` [Compound 39, 2-{3-[2-Butyl-5-hydroxy-6-(3-methyl-butyl)-3-oxo-2,3-di-hydro-pyridazin-4-yl]-1,1-dioxo-1,2-dihydro-1λ^6-ben-zo[1,2,4]thiadiazin-7-yloxy}-acetamide], the half-maximal inhibitory concentration (IC50) is below 10 µM.
On to `CC(C)c1nn(CCC2CC2)c(=O)c(C2=Nc3ccccc3S(=O)(=O)N2)c1O` [Compound 57, 2-(2-Cyclopropyl-ethyl)-4-(1,1-dioxo-1,2-dihydro-1λ^6-ben-zo[1,2,4]thiadiazin-3-yl)-5-hydroxy-6-isopropyl-2H-py-ridazin-3-one], for which the IC50 was below 10 µM.
In turn, `Cc1ccc(-c2nn(Cc3ccccc3)c(=O)c(C3=Nc4ccccc4S(=O)(=O)N3)c2O)s1` [Compound 59, 2-Benzyl-4-(1,1-dioxo-1,2-dihydro-1λ^6-ben-zo[1,2,4]thiadiazin-3-yl)-5-hydroxy-6-(5-methyl-thiophen-2-yl)-2H-py-ridazin-3-one] showed an IC50 below 10 µM.
`COc1ccc2c(c1)S(=O)(=O)NC(c1c(O)c(C(C)C)nn(CCC(C)C)c1=O)=N2` [Compound 26, 5-Hydroxy-6-isopropyl-4-(7-methoxy-1,1-dioxo-1,2-dihydro-1λ^6-ben-zo[1,2,4]thiadiazin-3-yl)-2-(3-methyl-butyl)-2H-py-ridazin-3-one] gave a half-inhibitory concentration (IC50) of 10 to 50 µM.
The same measure for `CCCc1nn(CCC(C)C)c(=O)c(C2=Nc3ccc(OC)cc3S(=O)(=O)N2)c1O` [Compound 42, 5-Hydroxy-4-(7-methoxy-1,1-dioxo-1,2-dihydro-1λ^6-ben-zo[1,2,4]thiadiazin-3-yl)-2-(3-methyl-butyl)-6-propyl-2H-py-ridazin-3-one]: below 10 µM; for `CCCCn1nc(CCC(C)C)c(O)c(C2=Nc3ccc(O)cc3S(=O)(=O)N2)c1=O` [Compound 38, 2-Butyl-5-hydroxy-4-(7-hydroxy-1,1-dioxo-1,2-dihydro-1λ^6-ben-zo[1,2,4]thiadiazin-3-yl)-6-(3-methyl-butyl)-2H-pyridazin-3-one]: below 10 µM; for `CCCCc1nn(CCC(C)C)c(=O)c(C2=Nc3ccc(O)cc3S(=O)(=O)N2)c1O` [Compound 36, 6-Butyl-5-hydroxy-4-(7-hydroxy-1,1-dioxo-1,2-dihydro-1λ^6-ben-zo[1,2,4]thiadiazin-3-yl)-2-(3-methyl-butyl)-2H-pyridazin-3-one]: below 10 µM.
Then `COc1ccc2c(c1)S(=O)(=O)NC(c1c(O)c(CCC#N)nn(CCC(C)(C)C)c1=O)=N2` [Compound 58, 3-[1-(3,3-Dimethyl-butyl)-4-hydroxy-5-(7-methoxy-1,1-dioxo-1,2-di-hydro-1λ^6-benzo[1,2,4]thiadiazin-3-yl)-6-oxo-1,6-di-hydro-pyridazin-3-yl]-propionitrile], with 10 to 50 µM.
The compound `Cc1ccc(-c2nn(CCC(C)(C)C)c(=O)c(C3=NS(=O)(=O)c4cc(OCC(N)=O)ccc4N3)c2O)s1` [Compound 64, 2-{3-[2-(3,3-Dimethyl-butyl)-5-hydroxy-6-(5-methyl-thiophen-2-yl)-3-ox-o-2,3-dihydro-pyridazin-4-yl]-1,1-dioxo-1,2-di-hydro-1λ^6-benzo[1,2,4]thiadiazin-7-yloxy}-acetamide] had an IC50 below 10 µM.
Take `COc1ccc2c(c1)S(=O)(=O)NC(c1c(O)c(C(C)(C)C)nn(CCC(C)(C)C)c1=O)=N2` [Compound 66, 6-tert-Butyl-2-(3,3-dimethyl-butyl)-5-hydroxy-4-(7-methoxy-1,1-di-oxo-1,2-dihydro-1λ^6-benzo[1,2,4]thiadiazin-3-yl)-2H-py-ridazin-3-one]: the IC50 is 10 to 50 µM.
Turning to `CCCc1nn(CCC(C)C)c(=O)c(C2=NS(=O)(=O)c3cc(OCC(N)=O)ccc3N2)c1O` [Compound 49, 2-{3-[5-Hydroxy-2-(3-methyl-butyl)-3-oxo-6-propyl-2,3-di-hydro-pyridazin-4-yl]-1,1-dioxo-1,2-dihydro-1λ^6-ben-zo[1,2,4]thiadiazin-7-yloxy}-acetamide], the IC50 is below 10 µM.
`CC(C)c1nn(Cc2ccccc2)c(=O)c(C2=Nc3ccccc3S(=O)(=O)N2)c1O` [Compound 41, 2-Benzyl-4-(1,1-dioxo-1,2-dihydro-1λ^6-ben-zo[1,2,4]thiadiazin-3-yl)-5-hydroxy-6-isopropyl-2H-py-ridazin-3-one] gave an IC50 of 10 to 50 µM.
Compound `CCCCn1nc(CCC(C)C)c(O)c(C2=Nc3ccc(OC)cc3S(=O)(=O)N2)c1=O` [Compound 34, 2-Butyl-5-hydroxy-4-(7-methoxy-1,1-dioxo-1,2-dihydro-1λ^6-ben-zo[1,2,4]thiadiazin-3-yl)-6-(3-methyl-butyl)-2H-pyridazin-3-one] displayed an IC50 below 10 µM.
In turn, `COc1ccc2c(c1)S(=O)(=O)NC(c1c(O)c(-c3cccs3)nn(Cc3ccccc3)c1=O)=N2` [Compound 5, 2-Benzyl-5-hydroxy-4-(7-methoxy-1,1-dioxo-1,2-dihydro-1λ^6-ben-zo[1,2,4]thiadiazin-3-yl)-6-thiophen-2-yl-2H-py-ridazin-3-one] yielded an IC50 of 10 to 50 µM.
`COc1ccc2c(c1)S(=O)(=O)NC(c1c(O)c(-c3ccco3)nn(CCC(C)C)c1=O)=N2` [Compound 32, 6-Furan-2-yl-5-hydroxy-4-(7-methoxy-1,1-dioxo-1,2-dihydro-1λ^6-ben-zo[1,2,4]thiadiazin-3-yl)-2-(3-methyl-butyl)-2H-py-ridazin-3-one] showed an IC50 below 10 µM.
Regarding `O=c1c(C2=Nc3ccc(O)cc3S(=O)(=O)N2)c(O)c(-c2cccs2)nn1CCC1CC1` [Compound 7, 2-(2-Cyclopropyl-ethyl)-5-hydroxy-4-(7-hydroxy-1,1-dioxo-1,2-di-hydro-1λ^6-benzo[1,2,4]thiadiazin-3-yl)-6-thiophen-2-yl-2H-py-ridazin-3-one], the IC50 is below 10 µM.
`CC(C)c1nn(CCC(C)(C)C)c(=O)c(C2=Nc3ccccc3S(=O)(=O)N2)c1O` [Compound 53, 2-(3,3-Dimethyl-butyl)-4-(1,1-dioxo-1,2-dihydro-1λ^6-ben-zo[1,2,4]thiadiazin-3-yl)-5-hydroxy-6-isopropyl-2H-py-ridazin-3-one] displayed a 50% inhibitory concentration (IC50) below 10 µM.
Turning to `CC(C)c1nn(CC2CCC2)c(=O)c(C2=Nc3ccccc3S(=O)(=O)N2)c1O` [Compound 63, 2-Cyclobutylmethyl-4-(1,1-dioxo-1,2-dihydro-1λ^6-ben-zo[1,2,4]thiadiazin-3-yl)-5-hydroxy-6-isopropyl-2H-py-ridazin-3-one], the IC50 was in the range of 10 to 50 µM.
In the case of `CCCCc1nn(CCCC)c(=O)c(C2=Nc3ccc(OCC(N)=O)cc3S(=O)(=O)N2)c1O` [Compound 47, 2-[3-(2,6-Dibutyl-5-hydroxy-3-oxo-2,3-dihydro-pyridazin-4-yl)-1,1-di-oxo-1,2-dihydro-1λ^6-benzo[1,2,4]thiadiazin-7-yl-oxy]-acetamide], the IC50 is below 10 µM.
In turn, `CC(C)CCn1nc(-c2cccs2)c(O)c(C2=Nc3ccc(OCC(=O)N4CCC(N)C4)cc3S(=O)(=O)N2)c1=O` (stereo not drawn) [Compound 21, 4-{7-[2-(3-Amino-pyrrolidin-1-yl)-2-oxo-ethoxy]-1,1-dioxo-1,2-di-hydro-1λ^6-benzo[1,2,4]thiadiazin-3-yl}-5-hydroxy-2-(3-methyl-butyl)-6-thiophen-2-yl-2H-pyridazin-3-one] returned an IC50 below 10 µM.
The compound `CC(C)CCn1nc(-c2cccs2)c(O)c(C2=Nc3ccncc3S(=O)(=O)N2)c1=O` [Compound 30, 4-(1,1-Dioxo-1,2-dihydro-1λ^6-pyrido[4,3-e][1,2,4]thiadiazin-3-yl)-5-hy-droxy-2-(3-methyl-butyl)-6-thiophen-2-yl-2H-py-ridazin-3-one] had a concentration for half-maximal inhibition (IC50) below 10 µM.
For the compound `COc1ccc2c(c1)S(=O)(=O)NC(c1c(O)c(-c3nccs3)nn(CCC(C)C)c1=O)=N2` [Compound 54, 5-Hydroxy-4-(7-methoxy-1,1-dioxo-1,2-dihydro-1λ^6-ben-zo[1,2,4]thiadiazin-3-yl)-2-(3-methyl-butyl)-6-thiazol-2-yl-2H-py-ridazin-3-one], the IC50 is below 10 µM.
The compound `COc1ccc2c(c1)S(=O)(=O)NC(c1c(O)c(-c3cccs3)nn(CCC(C)(C)C)c1=O)=N2` [Compound 56, 2-(3,3-Dimethyl-butyl)-5-hydroxy-4-(7-methoxy-1,1-dioxo-1,2-di-hydro-1λ^6-benzo[1,2,4]thiadiazin-3-yl)-6-thiophen-2-yl-2H-py-ridazin-3-one] displayed an IC50 below 10 µM.

The values above are taken from US20060189602A1, “Pyridazinone compounds” (Anadys Pharmaceuticals, Inc., priority 2004, published 2006).
